From patent US7767676B2, “Dihydro-1,3,5-triazine amine derivatives and their therapeutic uses” (Merck Sante, priority 2000, dated 2010)
Structures can show the parent of a compound that is named as a salt. Where two headings read alike, the source gives them in different places.

Key:
[1] = system: non-insulin-dependent diabetes induced in rats by Streptozotocin; assay: Antidiabetic activity in the Nostz rat (non-insulin-dependent diabetes induced by neonatal streptozotocin), glycaemia after oral treatment; assay type: in vivo; conditions: diabetic rats, blood 2 h after last administration; for change in vivo at 20 mg/kg: 20 mg/kg/D oral; for change in vivo at 200 mg/kg: 200 mg/kg/D oral
Method: Study of the Antidiabetic Activity in the Nostz Rat
The antidiabetic activity of the compounds of formula (I) administered orally was determined on an experimental model of non-insulin-dependent diabetes induced in rats by Streptozotocin.
The non-insulin-dependent diabetes model is obtained in rats by neonatal injection (on the day of birth) of streptozotocin.
The diabetic rats used were 8 weeks old. The animals were kept, from the day of their birth to the day of the experiment, in an animal house at a controlled temperature of 21 to 22° C. and subjected to a fixed cycle of light (from 7 am to 7 pm) and darkness (from 7 pm to 7 am). Their diet consisted of a maintenance diet, water and food were provided “ab libitum”, with the exception of the 2 hours of fasting preceding the tests when the food is withdrawn (postabsorptive state).
The rats were treated by the oral route for one (D1) or four (D4) days with the product to be tested. Two hours after the last administration of the product and 30 minutes after anaesthetizing the animals with sodium pentobarbital (Nembutal a), 300 μl of blood sample are collected from the end of the tail.
By way of example, results obtained are assembled in Table III.

[2] = 24 h, 1 day of treatment, read-out: percentage variation of glycaemia at D1 relative to D0
[3] = 96 h, 4 days of treatment, read-out: percentage variation of glycaemia at D4 relative to D0

Row | melting point [°C] | Structure (SMILES) | change in vivo at 20 mg/kg [1, 2] [%] | change in vivo at 200 mg/kg [1, 2] [%] | change in vivo at 20 mg/kg [1, 3] [%] | change in vivo at 200 mg/kg [1, 3] [%]
1 | > 260 | CC(CCC(=O)O)[C@H]1CCC2C3CCC4CC5(CC[C@]4(C)C3CC[C@@]21C)N=C(N)NC(N(C)C)=N5 (stereo partly shown) (as salt: HCl) |  |  |  | 
2 | 218 to 220 | CCC1N=C(N)NC(N(C)C)=N1 (stereo not shown) (as salt: HCl) [Compound 1, 2-amino-3,6-dihydro-4-dimethylamino-6-ethyl-1,3,5-triazine hydrochloride] |  |  |  | 
3 | 200 to 202 | CC1N=C(N(C)C)NC(N(C)C)=N1 (as salt: HCl) [Compound 2, 2,4-bisdimethylamino-3,6-dihydro-6-methyl-1,3,5-triazine hydrochloride] |  |  |  | 
4 | 243 to 245 | CN(C)C1=NC2(CCCCC2)N=C(N)N1 (as salt: HCl) [Compound 4] |  |  |  | 
5 | 150 to 152 | CN(C)C1=NC(C)(CCCO)N=C(N)N1 (stereo not shown) (as salt: HCl) [Compound 7] |  |  |  | 
6 | 124 to 126 | C=CCNC1=NC(C)(C)N=C(N(C)C)N1 (as salt: HCl) [Compound 8] |  |  |  | 
7 | 149 to 151 | CC(C)NC1=NC(C)(C)N=C(N(C)C)N1 (as salt: HCl) [Compound 9] |  |  |  | 
8 | 239 to 241 | CN(C)C1=NC(c2ccccc2)N=C(N)N1 (stereo not shown) (as salt: HCl) [Compound 10] |  |  |  | 
9 | 221 to 223 | COc1ccc(C2N=C(N)NC(N(C)C)=N2)cc1 (stereo not shown) (as salt: HCl) [Compound 11] |  |  |  | 
10 | 251 to 253 | CN(C)C1=NC(c2ccc(O)cc2)N=C(N)N1 (stereo not shown) (as salt: HCl) [Compound 12] |  |  |  | 
11 | 250 to 252 | CN(C)C1=NC(C)(C)N=C(N(C)C)N1 (as salt: HCl) [Compound 15] |  |  |  | 
12 | > 260 | CN(C)C1=NC(C)(C)N=C(N2CCCC2)N1 (as salt: HCl) [Compound 17] |  |  |  | 
13 | > 260 | CNC1=NC2(CCCCC2)N=C(N(C)C)N1 (as salt: HCl) [Compound 22] |  |  |  | 
14 | 248 to 250 | CCNC1=NC2(CCCCC2)N=C(N(C)C)N1 (as salt: HCl) [Compound 23] |  |  |  | 
15 | 91 to 92 | C=CCNC1=NC(C)N=C(N(C)C)N1 (stereo not shown) (as salt: HCl) [Compound 26] |  |  |  | 
16 | > 260 | CN(C)C1=NC2(CCC(OCc3ccccc3)CC2)N=C(N)N1 (stereo not shown) (as salt: HCl) [Compound 27] |  |  |  | 
17 | > 250 | CN(C)C1=NC2(CCC(O)CC2)N=C(N)N1 (stereo not shown) (as salt: HCl) [Compound 28] |  |  |  | 
18 | 207 to 209 | CN(C)C1=NC2(CCCC2)N=C(N)N1 (as salt: HCl) [Compound 31] |  |  |  | 
19 | > 260 | CN(C)C1=NC2(CCOCC2)N=C(N)N1 (as salt: HCl) [Compound 38] |  |  |  | 
20 | 225 to 227 | CN(C)C1=NC(c2ccco2)N=C(N)N1 (stereo not shown) (as salt: HCl) [Compound 40] |  |  |  | 
21 | > 260 | CN(C)C1=NC(C(C)(C)C)N=C(N)N1 (stereo not shown) (as salt: HCl) [Compound 42] |  |  |  | 
22 | 172 to 174 | CCNC1=NC(C)(C)N=C(N(C)C)N1 (as salt: fumarate) [Compound 14] |  |  |  | 
23 | 170 to 180 | NC1=NC2(CCCCC2)N=C(NCCc2ccccc2)N1 (as salt: salt) [Compound 20] |  |  |  | 
24 | > 140 | CC1N=C(N(C)C)NC(N2CCCC2)=N1 (stereo not shown) (as salt: salt) [Compound 21] |  |  |  | 
25 | 140 to 144 | CCC1(CC)N=C(N)NC(N(C)C)=N1 (as salt: salt) [Compound 30] |  |  |  | 

Row | melting point [°C] | Structure (SMILES) | change in vivo at 20 mg/kg [1, 2] [%] | change in vivo at 200 mg/kg [1, 2] [%] | change in vivo at 20 mg/kg [1, 3] [%] | change in vivo at 200 mg/kg [1, 3] [%]
26 | 201 to 203 | CN(C)C1=NC(C2CCCCC2)N=C(N)N1 (stereo not shown) (as salt: toluenesulphonate) [Compound 34] |  |  |  | 
27 | 251 to 253 | CN(C)C1=NC(C(F)(F)F)N=C(N)N1 (stereo not shown) (as salt: toluenesulphonate) [Compound 36] |  |  |  | 
28 | 159 to 161 | CN(C)C1=NC(Cc2ccccc2)N=C(N)N1 (stereo not shown) (as salt: toluenesulphonate) [Compound 37] |  |  |  | 
29 | 194 to 196 | CN(C)C1=NC(COc2ccccc2)N=C(N)N1 (stereo not shown) (as salt: toluenesulphonate) [Compound 41] |  |  |  | 
30 | 217 to 219 | CN(C)C1=NC(C2CC=CCC2)N=C(N)N1 (stereo not shown) (as salt: toluenesulphonate) [Compound 45] |  |  |  | 
31 |  | CC1N=C(N(C)C)NC(N(C)C)=N1 [Compound 2, 2,4-bisdimethylamino-3,6-dihydro-6-methyl-1,3,5-triazine hydrochloride] | -11 | -12 | -10 | -12
32 |  | CN(C)C1=NC(C)(C)N=C(N)N1 [Compound 3] | -10 | -18 | -8 | -22
33 |  | CN(C)C1=NC2(CCCCC2)N=C(N)N1 [Compound 4] | 0 | -20 | -1 | -10
34 | 138 to 140 | CN(C)C1=NC(C)(CCCO)N=C(N)N1 (stereo not shown) [Compound 6] |  |  |  | 
35 |  | CN(C)C1=NC(C)(CCCO)N=C(N)N1 (stereo not shown) [Compound 7] | -8 | -10 | -11 | -16
36 |  | CN(C)C1=NC(C)(C)N=C(N(C)C)N1 [Compound 15] | -8 | -4 | -9 | -5
37 |  | CN(C)C1=NC(C)(C)N=C(N2CCCC2)N1 [Compound 17] | -12 | -8 | -8 | -14
38 |  | CC(C)CCCC(C)[C@H]1CCC2C3CCC4CC5(CC[C@]4(C)C3CC[C@@]21C)N=C(N)NC(N(C)C)=N5 (stereo partly shown) [Compound 19] | -10 | -4 | -6 | -14
39 |  | CC1N=C(N(C)C)NC(N2CCCC2)=N1 (stereo not shown) [Compound 21] | -7 | -21 | -2 | -24
40 |  | CNC1=NC2(CCCCC2)N=C(N(C)C)N1 [Compound 22] | -23 | -13 | -16 | 0
41 |  | CC(CCC(=O)O)[C@H]1CCC2C3C(C[C@H](O)[C@@]21C)[C@@]1(C)CCC2(CC1C[C@H]3O)N=C(N)NC(N(C)C)=N2 (stereo partly shown) [Compound 25] | -4 | -7 | -11 | -6
42 |  | C=CCNC1=NC(C)N=C(N(C)C)N1 (stereo not shown) [Compound 26] | -6 | -14 | -11 | -9
43 |  | CN(C)C1=NC2(CCC(OCc3ccccc3)CC2)N=C(N)N1 (stereo not shown) [Compound 27] | -14 | -12 | -9 | -13
44 |  | CN(C)C1=NC2(CCC(O)CC2)N=C(N)N1 (stereo not shown) [Compound 28] | -4 | -4 | -1 | -13
45 |  | CN(C)C1=NC2(CCCC2)N=C(N)N1 [Compound 31] | -5 | -3 | -11 | -15
46 |  | CCCC1N=C(N)NC(N(C)C)=N1 (stereo not shown) [Compound 32] | 2 | -22 | 0 | -18
47 |  | CN1CCC2(CC1)N=C(N)NC(N(C)C)=N2 [Compound 39] | -6 | -4 | -6 | -7
48 |  | CN(C)C1=NC(C(C)(C)C)N=C(N)N1 (stereo not shown) [Compound 42] | -5 | -26 | -4 | -17
49 |  | CC(C)C1N=C(N)NC(N(C)C)=N1 (stereo not shown) [Compound 44] | -7 | -22 | -6 | -25

Row | Structure (SMILES) | melting point [°C] | change in vivo at 20 mg/kg [1, 2] [%] | change in vivo at 200 mg/kg [1, 2] [%] | change in vivo at 20 mg/kg [1, 3] [%] | change in vivo at 200 mg/kg [1, 3] [%]
50 | CC(C)CCCC(C)[C@H]1CCC2C3CCC4CC5(CC[C@]4(C)C3CC[C@@]21C)N=C(N)NC(N(C)C)=N5 (stereo partly shown) (as salt: HCl) [Compound 19] | > 260 |  |  |  | 
51 | CC(CCC(=O)O)[C@H]1CCC2C3C(C[C@H](O)[C@@]21C)[C@@]1(C)CCC2(CC1C[C@H]3O)N=C(N)NC(N(C)C)=N2 (stereo partly shown) (as salt: HCl) [Compound 25] | > 260 |  |  |  | 
52 | CN1CCC2(CC1)N=C(N)NC(N(C)C)=N2 (as salt: HCl) [Compound 39] | > 260 |  |  |  | 
